The record followed here is patent US20240384268A1, “Oligonucleotides” (Hudson Institute of Medical Research, priority 2021, published 2024).

Data set [1] addresses T1, cGAS (Homo sapiens, UniProt Q8N884). Description: IFN-driven gene expression in BJ hTERT SV40T fibroblasts (constitutive cGAS activation), RT-qPCR. Particulars: ASO transfected 20-100 nM overnight. For orientation: Real-time PCR tracks product formation cycle by cycle.
The target of data set [2] is T2, TLR2/1 (Mus musculus, UniProt Q9EPQ1+Q9QUN7).
T2 construct: endogenous in cells; host or cells: immortalised wild-type mouse BMDMs
T2 sequence (Q9QUN7 25-784): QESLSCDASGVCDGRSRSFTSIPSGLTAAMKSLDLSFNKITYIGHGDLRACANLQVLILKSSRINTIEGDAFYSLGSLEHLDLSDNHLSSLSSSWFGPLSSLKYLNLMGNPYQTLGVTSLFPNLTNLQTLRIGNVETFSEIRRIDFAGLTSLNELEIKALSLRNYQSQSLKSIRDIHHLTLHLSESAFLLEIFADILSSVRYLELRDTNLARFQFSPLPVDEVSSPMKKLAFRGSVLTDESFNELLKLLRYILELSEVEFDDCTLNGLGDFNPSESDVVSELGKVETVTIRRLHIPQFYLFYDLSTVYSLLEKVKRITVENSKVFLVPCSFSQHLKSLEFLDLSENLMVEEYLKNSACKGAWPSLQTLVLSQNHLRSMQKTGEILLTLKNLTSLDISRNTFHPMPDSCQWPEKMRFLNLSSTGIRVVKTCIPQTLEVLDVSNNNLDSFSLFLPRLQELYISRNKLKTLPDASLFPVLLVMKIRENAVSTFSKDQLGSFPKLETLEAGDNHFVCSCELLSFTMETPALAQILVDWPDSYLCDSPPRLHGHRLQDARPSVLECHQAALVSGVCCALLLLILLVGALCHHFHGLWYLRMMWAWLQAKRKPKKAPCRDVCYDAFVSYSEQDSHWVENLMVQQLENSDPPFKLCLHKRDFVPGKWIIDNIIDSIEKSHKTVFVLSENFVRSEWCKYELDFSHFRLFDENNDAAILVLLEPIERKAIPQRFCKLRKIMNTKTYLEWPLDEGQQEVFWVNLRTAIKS
T2 sequence (Q9EPQ1 26-795): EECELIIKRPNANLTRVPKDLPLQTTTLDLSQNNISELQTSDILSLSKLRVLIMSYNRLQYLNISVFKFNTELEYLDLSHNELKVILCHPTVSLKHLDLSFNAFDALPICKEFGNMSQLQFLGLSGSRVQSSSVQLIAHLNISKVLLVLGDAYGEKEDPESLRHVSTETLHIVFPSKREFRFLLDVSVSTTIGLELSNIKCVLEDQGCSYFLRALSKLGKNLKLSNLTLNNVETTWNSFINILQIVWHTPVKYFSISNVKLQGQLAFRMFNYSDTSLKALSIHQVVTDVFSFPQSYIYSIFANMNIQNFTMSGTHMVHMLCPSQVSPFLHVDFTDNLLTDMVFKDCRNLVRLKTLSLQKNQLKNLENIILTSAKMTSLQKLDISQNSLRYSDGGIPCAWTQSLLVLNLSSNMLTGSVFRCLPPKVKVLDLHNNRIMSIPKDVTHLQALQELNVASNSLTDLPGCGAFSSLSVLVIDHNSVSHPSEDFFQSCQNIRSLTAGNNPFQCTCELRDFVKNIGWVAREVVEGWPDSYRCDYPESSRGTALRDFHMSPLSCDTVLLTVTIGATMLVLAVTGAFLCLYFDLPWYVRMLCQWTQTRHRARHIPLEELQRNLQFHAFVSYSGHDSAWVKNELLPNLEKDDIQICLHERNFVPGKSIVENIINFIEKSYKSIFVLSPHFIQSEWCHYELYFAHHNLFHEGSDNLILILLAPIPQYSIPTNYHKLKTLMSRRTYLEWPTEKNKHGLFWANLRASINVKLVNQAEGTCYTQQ
Description: PAM3CSK4-driven TNF-α in immortalised mouse BMDMs. To be noted: iBMDMs; 500 nM ASO 6 h; PAM3C 100 ng/ml. The class given is cell-based.

The test system of data set [3] is THP-1 and HT-29 cells. Description: Cell viability, resazurin. To be noted: THP-1 100 nM, HT-29 187.5 nM; 6 h, with or without ISD70 overnight. Background: Alamar Blue is a resazurin reagent that responds to reducing activity.
Data set [4] addresses cGAS (Mus musculus, UniProt Q8C6L5). Description: ISD-driven IP-10 production in immortalised mouse BMDMs. The format is cell-based. Set-up: endogenous in cells; host or cells: immortalised wild-type mouse bone marrow macrophages (iBMDMs). Particulars: iBMDMs; 500 nM ASO; ISD overnight.
Data set [5] has as its target T1, cGAS. Description: ISD70-driven IP-10 production in HT-29 cells, ELISA. The format is cell-based. Set-up: endogenous in cells. Particulars: ISD70 24 h. How it is done: In such examples, inhibition of cGAS activity can be identified by observation of an overall decreased cGAS response of the cell population, or a lower proportion of cells having cGAS-positive activity as compared to positive control condition in which cells are treated with cGAS agonist in the absence of the oligonucleotide (or in the presence of an appropriate control inhibitory agent). In one example, THP-1 or HT-29 cells are transfected with ISD70 and incubated with an oligonucleotide. cGAS activity can then be determined by cytokine (e.g., IP-10 and/or IFNβ) expression (e.g., gene and/or protein expression) and/or secretion levels, such as by ELISA. A similar assay can be performed with LL171 cells transfected with ISD45. […] By way of example, cGAS enzymatic activity may be assessed in vitro using recombinant cGAS and then measuring activity thereof by way of a cGAMP ELISA.
For cGAS stimulations, cells were treated for indicated duration with ASOs, prior to transfection with ISD70 (human cells) or ISD45 (mouse cells) (the ASOs were not washed off prior to ISD transfection unless otherwise indicated). The cGAS ligands ISD45 (Stetson and Medzhitov, 2006) and ISD70 (also known as VACV-70 (Unterholzner et al., 2010)) (Table 1) were resuspended as follows: 5 1d of sense and 5 μl of antisense strands at 10 μg/μl were added to 90 μl PBS under sterile conditions, heated at 75° C. for 30 min, prior to letting cool down at room temperature and aliquoting (stock at 1 μg/1 l). The ISDs were transfected at a concentration of […] at a ratio of 1 μg:1 μl with Lipofectamine 2000 in Opti-MEM (Thermo Fisher Scientific). HEK-TLR3, HEK-TLR7 and […] were treated with indicated concentration of ASOs for 20-50 min, prior to stimulation with poly(I:C) (Invivogen), R848 (Invivogen), Motolimod (MedChemExpress) and the Class B CpG oligonucleotides ODN 2006 (synthesised by IDT and resuspended in RNase-free TE buffer [Table 1]), respectively. The TLR2/1 agonist PAM3CSK4 (Invivogen), the TLR4 agonist lipopolysaccharide (Invivogen), the Class B CpG oligonucleotides ODN 1826 (synthesised by IDT and resuspended in RNase-free TE buffer), the mouse Sting agonist DMXAA (Cayman) and the human STING agonist (compound #3 from (Raanjulu et al., 2018), referred to as GSK herein—kind gift from Cancer Therapeutics CRC, Australia) were used at indicated concentrations. Aspirin (Sigma—A2093) was resuspended in pure medium to 10 mM, filter sterilised and added to the cells at 2 mM final. All ASOs were synthesised by Integrated DNA Technologies (IDT), and resuspended in RNase-free TE buffer, pH 8.0 (Thermo Fisher Scientific). Cell viability was assessed by adding 1× fresh resazurin solution to the wells (10λ solution made up with 7 mg resazurin [Sigma—R7017] dissolved in 3.5 ml PBS, sterile filtered at […]) for 4 h, prior to reading at with a Fluostar OPTIMA (BMG LABTECH) plate-reader (fluorescence: Excitation 535 nm, Emission 590); wells with medium only and 1× resazurin were used as blanks.
Human IP-10 and IFN-β levels were measured using supernatants from the different cultures and were quantified using IP-10 (BD Biosciences, #550926) or IFN-β (PBL assay science, #41415-1) ELISA kits respectively, according to the manufacturers' protocol. Tetramethylbenzidine substrate (Thermo Fisher Scientific) was used for quantification of the cytokines on a Fluostar OPTIMA (BMG LABTECH) plate-reader.

The subject of data set [6] is TLR4. Description: LPS-driven IP-10 in MG-63 cells and immortalised mouse BMDMs. The class given is cell-based, human. Particulars: 500 nM ASO 6 h; LPS 1 μg/ml overnight.

In the oligonucleotide strings, read from the 5' end, every base follows the letter of its sugar. An asterisk marks phosphorothioate; unmarked linkages are phosphodiester. Other units and linkages are bracketed, terminal groups are in braces. A string of capitals states the bases alone. d = 2'-deoxy (DNA); m = 2'-O-methyl

T1 sequence (Q8N884 whole entry): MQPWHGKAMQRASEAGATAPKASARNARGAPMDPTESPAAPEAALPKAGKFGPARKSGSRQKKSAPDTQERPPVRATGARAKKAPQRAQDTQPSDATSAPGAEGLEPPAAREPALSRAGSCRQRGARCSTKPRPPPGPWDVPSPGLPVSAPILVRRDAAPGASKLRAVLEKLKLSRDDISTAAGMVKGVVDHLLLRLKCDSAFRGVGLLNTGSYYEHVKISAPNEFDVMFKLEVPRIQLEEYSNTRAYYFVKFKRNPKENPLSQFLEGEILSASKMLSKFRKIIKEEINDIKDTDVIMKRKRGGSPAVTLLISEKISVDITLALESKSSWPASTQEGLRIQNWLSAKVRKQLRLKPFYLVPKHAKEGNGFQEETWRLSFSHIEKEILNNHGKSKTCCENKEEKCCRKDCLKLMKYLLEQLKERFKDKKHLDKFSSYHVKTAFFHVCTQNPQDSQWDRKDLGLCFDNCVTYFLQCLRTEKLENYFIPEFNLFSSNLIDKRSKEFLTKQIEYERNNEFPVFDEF
Sequence of cGAS (Mus musculus, UniProt Q8C6L5) (Q8C6L5 whole entry): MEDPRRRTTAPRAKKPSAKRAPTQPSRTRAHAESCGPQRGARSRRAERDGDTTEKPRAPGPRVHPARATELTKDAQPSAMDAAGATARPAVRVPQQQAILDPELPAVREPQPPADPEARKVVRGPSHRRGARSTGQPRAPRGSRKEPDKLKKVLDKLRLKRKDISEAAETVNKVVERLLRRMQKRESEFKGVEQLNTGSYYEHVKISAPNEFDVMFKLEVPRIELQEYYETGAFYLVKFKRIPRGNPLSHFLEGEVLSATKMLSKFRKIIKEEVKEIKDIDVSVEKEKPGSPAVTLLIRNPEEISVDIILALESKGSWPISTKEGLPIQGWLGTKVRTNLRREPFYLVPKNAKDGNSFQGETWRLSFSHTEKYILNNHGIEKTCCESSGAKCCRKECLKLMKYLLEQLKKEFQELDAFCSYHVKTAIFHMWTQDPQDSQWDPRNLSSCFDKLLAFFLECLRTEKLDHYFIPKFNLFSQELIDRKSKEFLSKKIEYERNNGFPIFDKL

As for “mG*mC*mG*mG*mU*A*T*C*C*A*T*G*T*C*C*mC*mA*mG*mG*mC (mG*mC*mG*mG*mU*dA*dT*dC*dC*dA*dT*dG*dT*dC*dC*mC*mA*mG*mG*mC; antisense) [C2-Mut1]”, the “inhibition of constitutively expressed ISGs (IFIT1, IFIT2, IFI44; in words)” value in data set [1] is “significantly more potent than its two nucleotide variant C2-Mut1v3”. Besides, in data set [2], the “TNF-α production upon PAM3CSK4 (in words)” value is listed as “did not impact production of TNF-α”. In data set [3], the cell viability result was “did not significantly impact cell viability”. Further, in data set [4], the “ISD-induced IP-10 in immortalised mouse BMDMs (in words)” value is listed as “significantly impacting ISD sensing”. For the same substance, in data set [5] (187.5 nM ASO overnight), the “inhibition of ISD70-dependent IP-10 production (in words)” value is listed as “most inhibitory sequence of ISD70 sensing”. The “effect on ISD70-induced IP-10 production at low dose (in words)” value in data set [5] (ASO overnight at 125 nM (62.5-125 nM)) was “increased inhibitory activity”. In addition, the “IP-10 production driven by LPS (in words)” value in data set [6] is “did not significantly affect IP-10 production”.
